Assays:
Assay type in all cases: in vivo
beet = assay: Test Example 5: effect on crop by foliage application, plastic box (symbol f); conditions: 320 g/ha, 3 weeks after application
Procedure, shortened: (§1)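 Greenhouse culture at 25° C. to 30° C. followed spot-like sowing into sterilized diluvial soil, with seed covered by roughly 1.5 cm of soil.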

transplanted rice plant = assay: Test Example 1: effect on crop, application before weed generation in submerged conditions (symbol a); conditions: application herbicide amount 320 g/ha
Procedure, shortened: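 Rice at 2.5 leaf stage transplanted into submerged soil (4 cm depth) sown with three weed species; herbicide applied before weed emergence.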

[1] = system: Echinochloa crus-galli var. crus-galli; assay: Test Example 5: herbicidal effect by foliage application, plastic box (symbol H); conditions: 320 g/ha, 3 weeks after application
Procedure, shortened: (§2)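 Greenhouse foliar test: seedlings at 14 days, grown 25° C. to 30° C. in sterilized diluvial soil; compound applied as an aqueous dilution of an emulsion; response read 3 weeks after spraying.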

corn [2] = assay: Test Example 5: effect on crop by foliage application, plastic box (symbol c); conditions: 320 g/ha, 3 weeks after application
Procedure, shortened: as §1

soybean = assay: Test Example 5: effect on crop by foliage application, plastic box (symbol d); conditions: 320 g/ha, 3 weeks after application
Procedure, shortened: as §1

Scirpus juncoides = assay: Test Example 2: herbicidal activity, application during weed generation in submerged conditions (symbol B); conditions: Table 23; application herbicide amount 320 g/ha; grade 0-5 by criteria of Test Example 1
Procedure, shortened: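 Read-out: herbicidal effect on each species rated on a visual scale 3 weeks after treatment. Plants were raised together from seed in flooded alluvial soil (4 cm water) at 25° C. to 30° C. and treated at one to two leaves by water-surface application of diluted emulsion.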

[3] = system: Echinochloa crus-galli var. crus-galli; assay: Test Example 4: herbicidal effect by soil treatment (symbol H); conditions: application herbicide amount 320 g/ha
Procedure, shortened: (§3)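 Seeds were sown in sterilized diluvial soil, covered with about 1.5 cm of soil, and the soil surface was sprayed with a water-diluted emulsion of the compound at a predetermined rate. Plants grew in a greenhouse at 25° C. to 30° C.; effects were scored visually 3 weeks after application.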

Alopecurus myosuroides = assay: Test Example 5: herbicidal effect by foliage application, plastic box (symbol J); conditions: 320 g/ha, 3 weeks after application
Procedure, shortened: as §2

rice = assay: Test Example 4: effect on crop by soil treatment (symbol b); conditions: application herbicide amount 320 g/ha
Procedure, shortened: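 Sterilized diluvial soil, spot sowing, ~1.5 cm soil cover; greenhouse 25–30° C.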

Abutilon theophrasti = assay: Test Example 4: herbicidal effect by soil treatment (symbol M); conditions: application herbicide amount 320 g/ha
Procedure, shortened: as §3

Apera spica-venti = assay: Test Example 4: herbicidal effect by soil treatment (symbol L); conditions: application herbicide amount 320 g/ha
Procedure, shortened: as §3

Stellaria media = assay: Test Example 4: herbicidal effect by soil treatment (symbol P); conditions: application herbicide amount 320 g/ha
Procedure, shortened: as §3

corn [4] = assay: Test Example 4: effect on crop by soil treatment (symbol c); conditions: application herbicide amount 320 g/ha
Procedure, shortened: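 Soil-treatment setup: crop and weed seeds were spot-sown into sterilized diluvial soil, then buried beneath approximately 1.5 cm of it, and the boxes were housed in a 25–30° C. greenhouse.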

Cyperus difformis = assay: Test Example 3: herbicidal effect by foliage application, Wagner pot (symbol E); conditions: application herbicide amount 320 g/ha
Procedure, shortened: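 Scoring took place 3 weeks after application, using fixed criteria. Plants had been raised from seed for 14 days at 25 to 30 °C in submerged alluvial soil before a diluted emulsion of the test compound was sprayed uniformly on the leaves.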

SMILES: CON=C(C)CC1CC(O)=C(c2c(C)cc(-c3ccc(C)cc3)cc2C)C1=O (mixture of isomers) [6-018]
- f: beet, effect on crop grade (beet): 1 (Herbicidal ratio of 5% or higher and lower than 20%)
- Effect grade on crop, a: transplanted rice plant (transplanted rice plant): 5 (Herbicidal ratio of 90% or more (almost completely withered))
- H: Echinochloa crus-galli var. crus-galli, herbicidal effect grade [1]: 5 (Herbicidal ratio of 90% or more (almost completely withered))
- c: corn, effect on crop grade (corn [2]): 5 (Herbicidal ratio of 90% or more (almost completely withered))
- d: soybean, effect on crop grade (soybean): 3 (Herbicidal ratio of 40% or higher and lower than 70%)
- Herbicidal effect grade, B: Scirpus juncoides (Scirpus juncoides): 4 (Herbicidal ratio of 70% or higher and lower than 90%)
- H: Echinochloa crus-galli var. crus-galli, herbicidal effect grade [3]: 5 (Herbicidal ratio of 90% or more (almost completely withered))
- J: Alopecurus myosuroides, herbicidal effect grade (Alopecurus myosuroides): 5 (Herbicidal ratio of 90% or more (almost completely withered))
- b: directly sowed rice plant, effect on crop grade (rice): 3 (Herbicidal ratio of 40% or higher and lower than 70%)
- M: Abutilon theophrasti, herbicidal effect grade (Abutilon theophrasti): 0 (Herbicidal ratio of 5% or lower (almost no effect))
- L: Apera spica-venti, herbicidal effect grade (Apera spica-venti): 5 (Herbicidal ratio of 90% or more (almost completely withered))
- P: Stellaria media, herbicidal effect grade (Stellaria media): 0 (Herbicidal ratio of 5% or lower (almost no effect))
- c: corn, effect on crop grade (corn [4]): 0 (Herbicidal ratio of 5% or lower (almost no effect))
- herbicidal effect on E, grade 0-5 (Cyperus difformis): 5 (Herbicidal ratio of 90% or more (almost completely withered))

Source: patent US11000033B2, “Ketone or oxime compound, and herbicide” (NISSAN CHEMICAL CORPORATION, priority 2014, dated 2021)
